Assay results as given in ChEMBL document CHEMBL5346906, “Discovery of novel tranylcypromine-based derivatives as LSD1 inhibitors for gastric cancer treatment” (Eur J Med Chem, 2023).
Active and inactive are the calls of the source. The rule behind the calls is not given here.

Legend:
MGC-803 [1] = assay: Antiproliferative activity against human MGC-803 cells incubated for 48 hrs measured by MTT assay; format: functional, cell-based; details: MGC-803, 48 h
KYSE-450 = assay: Antiproliferative activity against human KYSE-450 cells incubated for 48 hrs measured by MTT assay; format: functional, cell-based; details: KYSE-450, 48 h
[2] = molecular target: T1, Lysine-specific histone demethylase 1A (Homo sapiens, UniProt O60341); assay: Inhibition of LSD1 in human MGC-803 cells assessed as increase in dimethylation of H3K4; format: cell-based; details: dose 0-24 µmol/L
[3] = molecular target: T1, Lysine-specific histone demethylase 1A; assay: Inhibition of LSD1 in human MGC-803 cells assessed as increase in methylation of H3K4 at 24 micromol/L; format: cell-based; details: dose 24.0 µmol/L
[4] = molecular target: T1, Lysine-specific histone demethylase 1A; assay: Inhibition of LSD1 in human MGC-803 cells assessed as increase in methylation of H3K9 at 24 micromol/L; format: cell-based; details: dose 24.0 µmol/L
[5] = molecular target: T1, Lysine-specific histone demethylase 1A; assay: Binding affinity to LSD1 in human MGC-803 cells assessed as thermal stability measured at 100 uM preincubated for 30 mins and incubated at 42 to 60 degreeC for 3 mins followed by cooled for 180 secs cycle repeated 3 times by CETSA based Western blotting analysis; format: cell-based; details: time 48.0 min
[6] = molecular target: T1, Lysine-specific histone demethylase 1A; assay: Binding affinity to LSD1 in human MGC-803 cells assessed as thermal solubility measured at 100 uM preincubated for 30 mins and incubated at 42 to 60 degreeC for 3 mins followed by cooled for 180 secs cycle repeated 3 times by CETSA based Western blotting analysis; format: cell-based; details: time 48.0 min
MGC-803 [7] = assay: Induction of apoptosis in human MGC-803 cells assessed as morphological change in cell nucleus incubated at 8 to 24 micromol/L for 48 hrs measured by DAPI staining analysis; format: functional, cell-based; details: dose 8-24 µmol/L
MGC-803 [8] = assay: Induction of apoptosis in human MGC-803 cells assessed as morphological change in cell nucleus incubated at 8 to 24 micromol/L for 48 hrs measured by Giemsa staining based microscopic analysis; format: functional; details: dose 8-24 µmol/L
MGC-803 [9] = assay: Induction of apoptosis in human MGC-803 cells assessed as cell death incubated at 8 to 24 micromol/L for 48 hrs measured by Calcein-AM/PI staining analysis; format: functional, cell-based; details: dose 8-24 µmol/L
MGC-803 [10] = assay: Induction of apoptosis in human MGC-803 cells assessed as morphological change of cells incubated at 8 to 24 micromol/L for 48 hrs measured by bright field microscopic analysis; format: functional, cell-based; details: dose 8-24 µmol/L
MGC-803 [11] = assay: Induction of apoptosis in human MGC-803 cells assessed as viable cells at 8 micromol/L for 48 hrs by annexinV-FITC/PI staining based flow cytometric analysis (reference value: 95.54%); format: functional; details: MGC-803, 48 h, dose 8 µmol/L, read-out: Activity
MGC-803 [12] = assay: Induction of apoptosis in human MGC-803 cells assessed as early apoptotic cells at 8 micromol/L for 48 hrs by annexinV-FITC/PI staining based flow cytometric analysis (reference value: 2.92%); format: functional; details: dose 8 µmol/L, at 8 µM
MGC-803 [13] = assay: Induction of apoptosis in human MGC-803 cells assessed as late apoptotic cells at 8 micromol/L for 48 hrs by annexinV-FITC/PI staining based flow cytometric analysis (reference value: 1.32%); format: functional; details: dose 8 µmol/L, at 8 µM
MGC-803 [14] = assay: Induction of apoptosis in human MGC-803 cells assessed as viable cells at 16 micromol/L for 48 hrs by annexinV-FITC/PI staining based flow cytometric analysis (reference value: 95.54%); format: functional; details: MGC-803, 48 h, dose 16 µmol/L, read-out: Activity
MGC-803 [15] = assay: Induction of apoptosis in human MGC-803 cells assessed as necrotic cells at 16 micromol/L for 48 hrs by annexinV-FITC/PI staining based flow cytometric analysis (reference value: 0.22%); format: functional; details: dose 16 µmol/L, at 16 µM
MGC-803 [16] = assay: Induction of apoptosis in human MGC-803 cells assessed as late apoptotic cells at 24 micromol/L for 48 hrs by annexinV-FITC/PI staining based flow cytometric analysis (reference value: 1.32%); format: functional; details: dose 24 µmol/L, at 24 µM
MGC-803 [17] = assay: Induction of mitochondrial membrane potential depolarization in human MGC-803 assessed as early apoptotic cells measured at 8 micromol/L for 20 mins by JC-1 staining based flow cytometric analysis (reference value: 4.52%); format: functional; details: dose 8 µmol/L, at 8 µM
MGC-803 [18] = assay: Induction of mitochondrial membrane potential depolarization in human MGC-803 assessed as necrotic cells measured at 8 micromol/L for 20 mins by JC-1 staining based flow cytometric analysis (reference value: 0.00%); format: functional; details: dose 8 µmol/L, at 8 µM
MGC-803 [19] = assay: Induction of mitochondrial membrane potential depolarization in human MGC-803 assessed as early apoptotic cells measured at 16 micromol/L for 20 mins by JC-1 staining based flow cytometric analysis (reference value: 4.52%); format: functional; details: dose 16 µmol/L, at 16 µM
MGC-803 [20] = assay: Induction of mitochondrial membrane potential depolarization in human MGC-803 assessed as late apoptotic cells measured at 16 micromol/L for 20 mins by JC-1 staining based flow cytometric analysis (reference value: 94.98%); format: functional; details: dose 16 µmol/L, at 16 µM
MGC-803 [21] = assay: Induction of mitochondrial membrane potential depolarization in human MGC-803 assessed as necrotic cells measured at 16 micromol/L for 20 mins by JC-1 staining based flow cytometric analysis (reference value: 0.00%); format: functional; details: dose 16 µmol/L, at 16 µM
MGC-803 [22] = assay: Induction of mitochondrial membrane potential depolarization in human MGC-803 assessed as early apoptotic cells measured at 24 micromol/L for 20 mins by JC-1 staining based flow cytometric analysis (reference value: 4.52%); format: functional; details: dose 24 µmol/L, at 24 µM
MGC-803 [23] = assay: Induction of mitochondrial membrane potential depolarization in human MGC-803 assessed as necrotic cells measured at 24 micromol/L for 20 mins by JC-1 staining based flow cytometric analysis (reference value: 0.00%); format: functional; details: dose 24 µmol/L, at 24 µM
MGC-803 [24] = assay: Induction of apoptosis in human MGC-803 cells assessed as decrease in anti-apoptotic Bcl-2 expression at 8 to 24 micromol/L; format: functional, cell-based; details: dose 8-24 µmol/L
MGC-803 [25] = assay: Inhibition of cell migration in human MGC-803 cells assessed as scratch width decrease treated at 2 to 6 micromol/L for 24 to 48 hrs measured by wound healing assay; format: functional, cell-based; details: dose 2-6 µmol/L, time 24-48 hrs
MGC-803 [26] = assay: Inhibition of cell migration in human MGC-803 cells assessed as scratch width decrease treated at 2 to 6 micromol/L for 48 hrs measured by transwell assay based crystal violet staining analysis; format: functional; details: dose 2-6 µmol/L
MGC-803 [27] = assay: Induction of cell differentiation in human MGC-803 cells assessed as increase in CD86 level at 24 micromol/L incubated for 48 hrs by flow cytometric analysis (reference value: 60%); format: functional; details: dose 24 µmol/L, at 24 µM
MGC-803 [28] = assay: Antiproliferative activity against human MGC-803 cells assessed as reduction in stemness of cells by measuring tumor ball diameter at 0 to 8 uM after 48 hrs using 3D-spheroid assay; format: functional, cell-based; details: dose 0-8 µM
MGC-803 [29] = assay: Antiproliferative activity against human MGC-803 cells assessed as reduction in stemness of cells by measuring tumor ball diameter at 0 to 8 uM after 48 hrs measured after 5 days using 3D-spheroid assay; format: functional, cell-based; details: dose 0-8 µM
MGC-803 [30] = assay: Antiproliferative activity against human MGC-803 cells assessed as reduction in stemness of cells by measuring tumor ball diameter at 0 to 8 uM after 48 hrs measured after 10 days using 3D-spheroid assay; format: functional, cell-based; details: dose 0-8 µM

O=C(c1cccc(CN[C@@H]2C[C@H]2c2ccc(F)c(F)c2)c1)N1CCN(c2ccc(Cl)c(Cl)c2)CC1
IC50 (MGC-803 [1]): 14.3 µM | IC50 (KYSE-450): 22.8 µM | inhibition [2]: Dose-Dependent Effect | inhibition [3]: Active | inhibition [4]: Active | Activity [5]: Active | Activity [6]: Active | Activity (MGC-803 [7]): Active | Activity (MGC-803 [8]): Active | Activity (MGC-803 [9]): Active | Activity (MGC-803 [10]): Active | viability at 8 µM (MGC-803 [11]): 91% | Activity (MGC-803 [12]): 5.92% | Activity (MGC-803 [13]): 2.76% | viability at 16 µM (MGC-803 [14]): 57.5% | Activity (MGC-803 [15]): 0.35% | Activity (MGC-803 [16]): 9.98% | Activity (MGC-803 [17]): 6.3% | Activity (MGC-803 [18]): 0% | Activity (MGC-803 [19]): 17.64% | Activity (MGC-803 [20]): 81% | Activity (MGC-803 [21]): 0.02% | Activity (MGC-803 [22]): 29.22% | Activity (MGC-803 [23]): 0.12% | Activity (MGC-803 [24]): Active | inhibition (MGC-803 [25]): Active | inhibition (MGC-803 [26]): Active | Activity (MGC-803 [27]): 74.6% | Activity (MGC-803 [28]): Active | Activity (MGC-803 [29]): inactive | Activity (MGC-803 [30]): Active
